According to patent US20220125051A1, “PRE-HARVEST DESICCATION METHOD” (SYNGENTA CROP PROTECTION AG, priority 2019, published 2022):
Values joined by “and” are separate entries in the source; they are usually repeats but may differ in a detail not shown here. Identical values can stand only once.

Tests used:
Format in all cases: in vivo
[1] = tested on: Lolium perenne (LOLPE); experiment: Post-emergence efficacy, Method C; details: 400 g/Ha, evaluated at 21 days, 100=total damage to plant, 0=no damage
Protocol: (§1) An “instant formulation”, known as the IF50, containing 50 g/L of the “technical” (i.e. unformulated) active ingredient was prepared by dissolving the active ingredient in a mixture of organic solvents and emulsifier, details of which are provided in the table. This IF50 was then mixed with a small, variable amount of acetone to aid dissolution, before addition of a 1% v/v aqueous solution in water of the adjuvant Empicol ESC70 3EO (Sodium lauryl ether sulphate) and 1% v/v Ammonium sulphate, as the aqueous diluent, to form an aqueous spray solution which contains a predetermined concentration of the active ingredient (which varies depending on the application rate of the active ingredient to the plants).
(§2) The composition of the mixture of organic solvents and emulsifier used as a base for the instant formulation was as given above in Table IF.
(§3) This aqueous spray solution was then sprayed onto the plants after about 21 days of cultivation. The plants were grown from seeds sown in standard soil, placed in a glasshouse under controlled conditions (at 24/18° C., day/night; 14 hours light; 65% humidity). After spray application the plants were then grown on in a glasshouse under the same conditions and watered twice daily. The test was evaluated at 21 days (100=total damage to plant; 0=no damage to plant).
(§4) Ipomoea hederacea (IPOHE), Amaranthus palmeri (AMAPA), Lolium perenne (LOLPE), Eleusine indica (ELEIN), Echinochloa crus-gaffi (ECHCG), Conyza canadensis (ERICA)

[2] = tested on: Eleusine indica (ELEIN); experiment: Post-emergence efficacy, Method C; details: 400 g/Ha, evaluated at 21 days, 100=total damage to plant, 0=no damage
Protocol: as §1, §2, §3, §4

[3] = tested on: Echinochloa crus-gaffi (ECHCG); experiment: Post-emergence efficacy, Method C; details: 400 g/Ha, evaluated at 21 days, 100=total damage to plant, 0=no damage
Protocol: as §1, §2, §3, §4

[4] = tested on: Conyza canadensis (ERICA); experiment: Post-emergence efficacy, Method C; details: 400 g/Ha, evaluated at 21 days, 100=total damage to plant, 0=no damage
Protocol: as §1, §2, §3, §4

[5] = tested on: Ipomoea hederacea (IPOHE); experiment: Post-emergence efficacy, Method C; details: 400 g/Ha, evaluated at 21 days, 100=total damage to plant, 0=no damage
Protocol: as §1, §2, §3, §4

[6] = tested on: Amaranthus palmeri (AMAPA); experiment: Post-emergence efficacy, Method C; details: 400 g/Ha, evaluated at 21 days, 100=total damage to plant, 0=no damage
Protocol: as §1, §2, §3, §4

[7] = tested on: Lolium perenne (LOLPE); experiment: Post-emergence efficacy, Method B; details: read-out: Control of weed species after post-emergence application, LOLPE
Protocol: (§5) An “instant formulation”, known as the IF50, containing 50 g/L of the “technical” (i.e. unformulated) active ingredient was prepared by dissolving the active ingredient in a mixture of organic solvents and emulsifier, details of which are provided in the table. This IF50 was then mixed with a small, variable amount of acetone to aid dissolution, before addition of an aqueous solution of 1% v/v ammonium sulphate+1% v/v Empicol ESC70 (Sodium lauryl ether sulphate) adjuvant, as the aqueous diluent, to form an aqueous spray solution which contains a predetermined concentration of the active ingredient (which varies depending on the application rate of the active ingredient to the plants).
(§6) This aqueous spray solution was then sprayed onto the plants, after about 12 days' cultivation. The plants were grown from seeds sown in standard soil, placed in a glasshouse under controlled conditions (at 24/18° C. or 20/16° C., day/night; 16 hours light; 65% humidity). After spray application the plants were then grown on in a glasshouse under the same conditions and watered twice daily. […] the test was evaluated (100=total damage to plant; 0=no damage to plant).
(§7) Ipomoea hederacea (IPOHE), Euphorbia heterophylla (EPHHL), Chenopodium album (CHEAL), Amaranthus retroflexus (AMARE), Lolium perenne (LOLPE), Digitaria sanguinalis (DIGSA), Eleusine indica (ELEIN), Echinochloa crus-galli (ECHCG), Setaria faberi (SETFA)

[8] = tested on: Digitaria sanguinalis (DIGSA); experiment: Post-emergence efficacy, Method B; details: read-out: Control of weed species after post-emergence application, DIGSA
Protocol: as §5, §6, §7

[9] = tested on: Amaranthus retroflexus (AMARE); experiment: Post-emergence efficacy, Method B; details: read-out: Control of weed species after post-emergence application, AMARE
Protocol: as §5, §6, §7

[10] = tested on: Chenopodium album (CHEAL); experiment: Post-emergence efficacy, Method B; details: read-out: Control of weed species after post-emergence application, CHEAL
Protocol: as §5, §6, §7

[11] = tested on: Echinochloa crus-galli (ECHCG); experiment: Post-emergence efficacy, Method B; details: read-out: Control of weed species after post-emergence application, ECHCG
Protocol: as §5, §6, §7

[12] = tested on: Eleusine indica (ELEIN); experiment: Post-emergence efficacy, Method B; details: read-out: Control of weed species after post-emergence application, ELEIN
Protocol: as §5, §6, §7

[13] = tested on: Setaria faberi (SETFA); experiment: Post-emergence efficacy, Method B; details: read-out: Control of weed species after post-emergence application, SETFA
Protocol: as §5, §6, §7

[14] = tested on: Euphorbia heterophylla (EPHHL); experiment: Post-emergence efficacy, Method B; details: read-out: Control of weed species after post-emergence application, EPHHL
Protocol: as §5, §6, §7

[15] = tested on: Ipomoea hederacea (IPOHE); experiment: Post-emergence efficacy, Method B; details: read-out: Control of weed species after post-emergence application, IPOHE
Protocol: as §5, §6, §7

[16] = tested on: Brassica napus (BRSNN); experiment: Pre-harvest desiccation of crop plants; details: evaluated after 7 and 14 days (which not stated), 100=total damage to plant, 0=no damage; for Post emergence dessication efficacy, BRSNN: Table F; for Post-emergence dessication efficacy, BRSNN: Table E
Protocol: (§8) Seeds of a variety of test species were sown in standard loam based soil in pots. After cultivation from between 21 and 28 days (post-emergence) under controlled conditions in a glasshouse (at 24/16° C., day/night; 14 hours light; 65% humidity) for warm climate species and (at 20/16° C. day/night; 15 hours light; 65% humidity) for cool climate species.
(§9) The plants were sprayed with an aqueous spray solution derived from dissolving the technical active ingredient formula in a small amount of acetone and a special solvent and emulsifier mixture referred to as IF50 (11.12% Emulsogen EL360 TM+44.44% N-methylpyrrolidone+44.44% Dowanol DPM glycol ether), to create a 50 g/I solution which was then diluted to required concentration using a solution of 1% Empicol ESC70 (Sodium lauryl ether sulphate)+1% ammonium sulphate in water as diluent.
(§10) The delivery of the aqueous spray solution was via a laboratory track sprayer which delivered the aqueous spray composition at a rate of 200 litres per hectare, using a flat fan nozzle (Teejet 11002VS) and an application volume of 200 litre/ha (at 2 bar).
(§11) The test plants were then grown in a glasshouse under controlled conditions (at 24/16° C., day/night; 14 hours light; 65% humidity) for warm climate species and (at 20/16° C. day/night; 15 hours light; 65% humidity) for cool climate species and watered twice daily. After 7 and 14 days the test was evaluated (100=total damage to plant; 0=no damage to plant).
(§12) A value of n/t indicates not tested.
(§13) Glycine Max (GLXMA), Solanum turberosum (SOLTU), Gossypium hirsutum (GOSHI), Brassica napus (BRSNN), Helianthus annus (HELAN)

[17] = tested on: Glycine Max (GLXMA); experiment: Pre-harvest desiccation of crop plants; details: evaluated after 7 and 14 days (which not stated), 100=total damage to plant, 0=no damage; for Post emergence dessication efficacy, GLXMA: Table F; for Post-emergence dessication efficacy, GLXMA: Table E
Protocol: as §8, §9, §10, §11, §12, §13

[18] = tested on: Helianthus annus (HELAN); experiment: Pre-harvest desiccation of crop plants; details: Table F, evaluated after 7 and 14 days (which not stated), 100=total damage to plant, 0=no damage
Protocol: as §8, §9, §10, §11, §12, §13

[19] = tested on: Solanum turberosum (SOLTU); experiment: Pre-harvest desiccation of crop plants; details: Table E, evaluated after 7 and 14 days (which not stated), 100=total damage to plant, 0=no damage
Protocol: as §8, §9, §10, §11, §12, §13

[20] = tested on: Gossypium hirsutum (GOSHI); experiment: Pre-harvest desiccation of crop plants; details: Table E, evaluated after 7 and 14 days (which not stated), 100=total damage to plant, 0=no damage
Protocol: as §8, §9, §10, §11, §12, §13

Row | SMILES | Control of weed species after post-emergence application, LOLPE [1] | Control of weed species after post-emergence application, ELEIN [2] | Control of weed species after post-emergence application, ECHCG [3] | Control of weed species after post-emergence application, ERICA [4] | Control of weed species after post-emergence application, IPOHE [5] | Control of weed species after post-emergence application, AMAPA [6] | pest or weed control at 1000 g/ha [7] [%] | pest or weed control at 1000 g/ha [8] [%] | pest or weed control at 1000 g/ha [9] [%] | pest or weed control at 1000 g/ha [10] [%] | pest or weed control at 1000 g/ha [11] [%] | pest or weed control at 1000 g/ha [12] [%] | pest or weed control at 1000 g/ha [13] [%] | pest or weed control at 1000 g/ha [14] [%] | pest or weed control at 1000 g/ha [15] [%] | other results
1 | Cl.O=S(=O)([O-])CC[n+]1ccc(-c2ccncc2)cn1 [Compound A27] | 68 | 80 | 43 | 65 | 90 | 77 | – | – | – | – | – | – | – | – | – | –
2 | O=C(O)CC[n+]1ccc(-c2cccnn2)cn1.[Cl-] [Compound A138, 3-(4-pyridazin-3-ylpyridazin-1-ium-1-yl)propanoic acid chloride] | – | – | – | – | – | – | 100 | 100 | 100 | 100 | 100 | 100 | 100 | 100 | 40 | Post emergence dessication efficacy, BRSNN ([16]; 150 g/Ha): 63 and 98; Post emergence dessication efficacy, BRSNN ([16]; 600 g/Ha): 96 and 100; Post emergence dessication efficacy, GLXMA ([17]; 50 g/Ha): 57 and 37; Post emergence dessication efficacy, GLXMA ([17]; 150 g/Ha): 67 and 72; Post emergence dessication efficacy, GLXMA ([17]; 600 g/Ha): 82 and 90; Post emergence dessication efficacy, HELAN ([18]; 50 g/Ha): 100; Post emergence dessication efficacy, HELAN ([18]; 150 g/Ha): 100; Post emergence dessication efficacy, HELAN ([18]; 600 g/Ha): 100
3 | O=S(=O)([O-])C[n+]1ccc(-c2ncccn2)cn1 [Compound A3, (4-pyrimidin-2-ylpyridazin-1-ium-1-yl)methanesulfonate] | 25 | 15 | 13 | 100 | 83 | 65 | – | – | – | – | – | – | – | – | – | –
4 | O=C(O)CC[n+]1ccc(-c2ccncn2)cn1.[Cl-] [Compound A28] | – | – | – | – | – | – | 70 | 100 | 100 | 90 | 100 | 100 | 40 | 100 | 100 | Post-emergence dessication efficacy, BRSNN ([16]; 150 g/Ha): 97; Post-emergence dessication efficacy, BRSNN ([16]; 300 g/Ha): 100; Post-emergence dessication efficacy, BRSNN ([16]; 600 g/Ha): 100; Post-emergence dessication efficacy, GLXMA ([17]; 150 g/Ha): 93; Post-emergence dessication efficacy, GLXMA ([17]; 300 g/Ha): 99; Post-emergence dessication efficacy, GLXMA ([17]; 600 g/Ha): 99; Post-emergence dessication efficacy, SOLTU ([19]; 150 g/Ha): 100; Post-emergence dessication efficacy, SOLTU ([19]; 300 g/Ha): 100; Post-emergence dessication efficacy, SOLTU ([19]; 600 g/Ha): 100; Post-emergence dessication efficacy, GOSHI ([20]; 150 g/Ha): 100; Post-emergence dessication efficacy, GOSHI ([20]; 300 g/Ha): 100; Post-emergence dessication efficacy, GOSHI ([20]; 600 g/Ha): 100
